Measurements as given in US20200399262A1, “COMPOUNDS FOR INHIBITING PROTEIN DEGRADATION AND METHODS OF USE THEREOF IN THE TREATMENT OF CANCER” (PI Therapeutics Ltd, priority 2018, published 2020).
≈ marks a conversion by molar mass, not a printed value.

Assays:
MDA-MB-231 = assay: NCI60 screen cytotoxicity; type: cell-based; details: Homo sapiens, Breast cancer, read-out: Compound B1 EC50
SN12C = assay: NCI60 screen cytotoxicity; type: cell-based; details: Homo sapiens, Renal cancer, read-out: Compound B1 EC50
CCRF-CEM = assay: NCI60 screen cytotoxicity; type: cell-based; details: Homo sapiens, Leukemia, read-out: Compound B1 EC50
KM-12 = assay: NCI60 screen cytotoxicity; type: cell-based; details: Homo sapiens, KM12, Colon cancer, read-out: Compound B1 EC50
BT-549 = assay: NCI60 screen cytotoxicity; type: cell-based; details: Homo sapiens, Breast cancer, read-out: Compound B1 EC50
[1] = Kinetic solubility by differential UV absorbance; type: physicochemical; details: aqueous buffer, kinetic from dmso stock; DMSO stock diluted in PBS, OD before and after centrifugation
Experimental: FIG. 3A-3B depict the kinetic solubility of Compound B1 (FIG. 3A) and Compound E1 (FIG. 3B) as measured by differential UV absorbance of the compounds, as performed before and after centrifugation. Soluble concentrations were determined when OD was equivalent between centrifuged and non-centrifuged fractions. Compounds were dissolved from co-solvent stock, and further serially 2-fold diluted in PBS. OD was measured at the maximal absorbance for each compound before (BC) and after (AC) centrifugation, using Spark 20M, Tecan.
Kinetic solubility quantification. Compound B1/Compound E1 DMSO stock was diluted with PBS by serial 2-fold dilutions. Then, the samples were centrifuged for 5 minutes at 17,000 g to precipitate any insoluble compound. Each sample was tested at a single wave length (Compound B1 at […]; Compound E1 at […]) in duplicate before and after centrifugation to assess solubility of the compound. Soluble concentrations were determined when optical density (OD) was equivalent between centrifuged and non-centrifuged fractions.
Kinetic solubility of all Compounds was determined by differential UV absorbance before and after centrifugation. […] Solubility concentration was determined when OD was equivalent between centrifuged and non-centrifuged fractions (FIG. 3A-3B).

SMILES: CN(C)CC(=O)NCC(=O)N1C/C(=C\c2ccc(C#N)cc2)C(=O)/C(=C/c2ccc(C#N)cc2)C1 [Compound B1]
- EC50 (MDA-MB-231): < 0.3 µM
- EC50 (SN12C): < 0.3 µM
- EC50 (CCRF-CEM): < 0.3 µM
- EC50 (KM-12): < 0.3 µM
- EC50 (BT-549): < 0.3 µM
- solubility kinetic [1]: 50 µM (≈ 23.4 µg/mL)
